Laboratory results reported in ChEMBL document CHEMBL1201862, “PubChem BioAssay data set” (2004).
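The compound was tested at five concentrations on cells cultured in 96-well plates, with a 48-hour exposure period. GI50: concentration for 50% inhibition of growth.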 Active and inactive are the calls of the source. Cut-off read from the data, not from the text of the source: active = GI50 up to about 1.1 µM and inactive = higher.

Assays:
Test in all cases: DTP human tumour cell line panel, 48 h
NCI/ADR-RES = test system: NCI/ADR-RES
Malme-3M = test system: Malme-3M
HCC 2998 = test system: HCC 2998
NCI-H226 = test system: NCI-H226
SN12C = test system: SN12C
IGROV-1 = test system: IGROV-1
NCI-H460 = test system: NCI-H460
SW-620 = test system: SW-620
OVCAR-5 = test system: OVCAR-5
SF-268 = test system: SF-268
786-0 = test system: 786-0
RXF 393 = test system: RXF 393
SK-OV-3 = test system: SK-OV-3
HOP-92 = test system: HOP-92
LOX IMVI = test system: LOX IMVI
NCI-H23 = test system: NCI-H23
MCF7 = test system: MCF7
SK-MEL-28 = test system: SK-MEL-28
T47D = test system: T47D
CCRF-CEM = test system: CCRF-CEM

Measured: GI50

CC12CCC(C1)C(C)(C)C2OC(=O)c1ccccc1C(=O)O (stereo unspecified)
inactive: NCI/ADR-RES > 100 µM | Malme-3M > 100 µM | HCC 2998 > 100 µM | NCI-H226 > 100 µM | SN12C > 100 µM | IGROV-1 > 100 µM | NCI-H460 > 100 µM | SW-620 > 100 µM | OVCAR-5 > 100 µM | SF-268 > 100 µM | 786-0 > 100 µM | RXF 393 > 100 µM | SK-OV-3 > 100 µM | HOP-92 > 100 µM | LOX IMVI > 100 µM | NCI-H23 > 100 µM | MCF7 > 100 µM | SK-MEL-28 > 100 µM | T47D > 100 µM

CN(C)C=O.O=C(Nc1nnn[nH]1)c1nc(O)cc(-c2ccccc2)n1
inactive: NCI/ADR-RES > 100 µM | Malme-3M > 100 µM | HCC 2998 > 100 µM | NCI-H226 > 100 µM | SN12C > 100 µM | IGROV-1 > 100 µM | NCI-H460 > 100 µM | SW-620 > 100 µM | OVCAR-5 > 100 µM | SF-268 > 100 µM | 786-0 > 100 µM | RXF 393 > 100 µM | SK-OV-3 > 100 µM | HOP-92 > 100 µM | LOX IMVI > 100 µM | NCI-H23 > 100 µM | MCF7 > 100 µM | SK-MEL-28 > 100 µM | T47D > 100 µM

CC1=C/C(=C(/c2ccc(O)c(C)c2)c2ccccc2C(=O)O)C=CC1=O
inactive: NCI/ADR-RES 31 µM | Malme-3M 24.9 µM | HCC 2998 19.1 µM | NCI-H226 23.1 µM | SN12C 19.6 µM | IGROV-1 18.1 µM | NCI-H460 31.5 µM | SW-620 19 µM | OVCAR-5 21.2 µM | CCRF-CEM 21.8 µM | SF-268 25.2 µM | 786-0 19 µM | RXF 393 17.4 µM | SK-OV-3 19.2 µM | HOP-92 20.3 µM | LOX IMVI 20.7 µM | NCI-H23 20.2 µM | MCF7 19.7 µM | SK-MEL-28 20.4 µM | T47D 26.8 µM

COc1cc(/C=C2\N=C(c3ccccc3)N(c3nc4ccc(Sc5ccccc5)cc4[nH]3)C2=O)cc(OC)c1OC
inactive: NCI/ADR-RES 20.4 µM | Malme-3M 16.9 µM | HCC 2998 16.5 µM | SN12C 27.9 µM | IGROV-1 45.4 µM | NCI-H460 21.6 µM | SW-620 25 µM | OVCAR-5 33.7 µM | CCRF-CEM 27.1 µM | SF-268 26.2 µM | 786-0 20.4 µM | RXF 393 22.1 µM | SK-OV-3 30.1 µM | HOP-92 58.6 µM | LOX IMVI 23.3 µM | NCI-H23 27 µM | MCF7 17.8 µM | SK-MEL-28 24 µM | T47D 17.9 µM

O=C1C=CC(=O)c2c1ccc1c3ccccc3n(Cc3cccc([N+](=O)[O-])c3)c21
inactive: NCI/ADR-RES 37.8 µM | Malme-3M 19.5 µM | HCC 2998 > 80.7 µM | NCI-H226 99.3 µM | SN12C 21.8 µM | IGROV-1 22.9 µM | NCI-H460 > 95.9 µM | SW-620 11.5 µM | OVCAR-5 > 100 µM | CCRF-CEM 8.36 µM | SF-268 39.6 µM | 786-0 22.8 µM | RXF 393 22.5 µM | SK-OV-3 > 100 µM | HOP-92 20.1 µM | LOX IMVI 33.9 µM | NCI-H23 21.7 µM | MCF7 22.3 µM | SK-MEL-28 > 43.6 µM | T47D 26.4 µM

CN1CCCCC(C#N)(c2ccccc2)CC1 (stereo unspecified)
inactive: NCI/ADR-RES > 100 µM | Malme-3M > 100 µM | HCC 2998 > 100 µM | IGROV-1 > 100 µM | NCI-H460 > 100 µM | SW-620 > 100 µM | OVCAR-5 > 100 µM | CCRF-CEM > 100 µM | SF-268 > 100 µM | 786-0 > 100 µM | RXF 393 > 100 µM | SK-OV-3 > 100 µM | HOP-92 > 100 µM | NCI-H23 > 100 µM | MCF7 > 100 µM | SK-MEL-28 > 100 µM | T47D > 100 µM

CN(C)CC(O)CNC(=O)Nc1ccccc1 (stereo unspecified)
inactive: NCI/ADR-RES > 100 µM | Malme-3M > 100 µM | HCC 2998 > 100 µM | NCI-H226 > 100 µM | SN12C > 100 µM | IGROV-1 > 100 µM | NCI-H460 > 100 µM | SW-620 > 100 µM | OVCAR-5 > 100 µM | CCRF-CEM > 100 µM | SF-268 > 100 µM | 786-0 > 100 µM | RXF 393 > 100 µM | SK-OV-3 > 100 µM | HOP-92 > 100 µM | LOX IMVI > 100 µM | NCI-H23 > 100 µM | MCF7 > 100 µM | SK-MEL-28 > 100 µM | T47D > 100 µM

CC(=O)c1cc2c(Br)cccc2oc1=O
inactive: NCI/ADR-RES > 100 µM | Malme-3M > 100 µM | HCC 2998 > 100 µM | NCI-H226 > 100 µM | SN12C > 100 µM | IGROV-1 > 100 µM | NCI-H460 > 100 µM | SW-620 > 100 µM | OVCAR-5 > 100 µM | CCRF-CEM > 100 µM | SF-268 95.5 µM | 786-0 > 100 µM | RXF 393 > 100 µM | HOP-92 > 100 µM | LOX IMVI > 100 µM | NCI-H23 > 100 µM | MCF7 > 100 µM | SK-MEL-28 > 100 µM | T47D > 100 µM

Cn1cnc2c(sc3nc4ccccc4n32)c1=N
inactive: NCI/ADR-RES > 100 µM | Malme-3M > 100 µM | HCC 2998 17.6 µM | NCI-H226 > 100 µM | IGROV-1 22.6 µM | SW-620 > 100 µM | OVCAR-5 > 100 µM | CCRF-CEM > 100 µM | SF-268 > 100 µM | 786-0 > 100 µM | RXF 393 > 100 µM | SK-OV-3 > 100 µM | HOP-92 > 100 µM | LOX IMVI > 100 µM | NCI-H23 > 100 µM | MCF7 > 100 µM | SK-MEL-28 > 100 µM | T47D > 100 µM

C=C(C)[C@@]1(O[Si](C)(C)C)CCCC[C@@H]1CC(Sc1ccccc1)Sc1ccccc1
inactive: NCI/ADR-RES 13.8 µM | Malme-3M 12.1 µM | HCC 2998 15.8 µM | NCI-H226 16.1 µM | IGROV-1 15.6 µM | NCI-H460 13.2 µM | SW-620 14.1 µM | OVCAR-5 16.2 µM | CCRF-CEM 14.4 µM | SF-268 14.8 µM | 786-0 14.6 µM | RXF 393 10.8 µM | SK-OV-3 20 µM | HOP-92 12.7 µM | LOX IMVI 17.9 µM | NCI-H23 13.4 µM | MCF7 12 µM | SK-MEL-28 18.3 µM | T47D 4.26 µM

C=C1C(C2(C)C=CC(=O)OC3(C)COC(=O)CC32)C(OC=O)C(OC(=O)C(O)C(C)CC)C2(C)C(c3ccoc3)CC(OC(C)=O)C12O (stereo unspecified)
inactive: NCI/ADR-RES > 100 µM | HCC 2998 23.6 µM | NCI-H226 > 100 µM | SN12C > 100 µM | IGROV-1 93.5 µM | NCI-H460 42.1 µM | SW-620 > 100 µM | OVCAR-5 > 100 µM | CCRF-CEM 35 µM | SF-268 > 100 µM | 786-0 > 100 µM | RXF 393 > 100 µM | SK-OV-3 > 100 µM | HOP-92 > 100 µM | LOX IMVI 25.3 µM | NCI-H23 > 100 µM | MCF7 > 100 µM | SK-MEL-28 > 100 µM | T47D > 100 µM

O=C1CC(NC(=O)C(F)(F)F)c2c(Br)sc(N3CCC(c4ccccc4)CC3)c21 (stereo unspecified)
inactive: NCI/ADR-RES 69 µM | Malme-3M > 100 µM | HCC 2998 > 100 µM | NCI-H226 28.4 µM | SN12C > 100 µM | IGROV-1 > 100 µM | NCI-H460 13.7 µM | SW-620 43.4 µM | OVCAR-5 > 100 µM | CCRF-CEM 4.05 µM | SF-268 43.4 µM | 786-0 20.8 µM | RXF 393 17 µM | SK-OV-3 64 µM | HOP-92 3.87 µM | LOX IMVI 7.85 µM | NCI-H23 6.7 µM | MCF7 18.7 µM | T47D 4.45 µM

CCc1cc(O)c(Cl)c(C)c1Cl
inactive: NCI/ADR-RES 21.7 µM | Malme-3M 19.4 µM | HCC 2998 15.2 µM | SN12C 15.6 µM | IGROV-1 18.6 µM | NCI-H460 15.6 µM | SW-620 21.9 µM | OVCAR-5 20.6 µM | CCRF-CEM 18.2 µM | SF-268 20.9 µM | 786-0 17.1 µM | RXF 393 14.1 µM | SK-OV-3 18.3 µM | HOP-92 12.8 µM | LOX IMVI 15.9 µM | NCI-H23 19 µM | MCF7 23.2 µM | SK-MEL-28 19.5 µM | T47D 28.7 µM

COC(=O)C(CC(C)C)NC(=O)C(NC(=O)c1ccc(-c2ccc(Cl)cc2Cl)o1)C(C)C (stereo unspecified)
inactive: NCI/ADR-RES 18.7 µM | HCC 2998 17.3 µM | NCI-H226 32.4 µM | SN12C 18 µM | IGROV-1 18.7 µM | NCI-H460 14.9 µM | SW-620 28.8 µM | OVCAR-5 22.2 µM | CCRF-CEM 12.2 µM | SF-268 22 µM | 786-0 16.1 µM | RXF 393 14.8 µM | SK-OV-3 30.8 µM | HOP-92 14.2 µM | LOX IMVI 15.7 µM | NCI-H23 22.5 µM | MCF7 16.5 µM | SK-MEL-28 33.4 µM | T47D 15.3 µM
